# Like-named read-outs stand apart in the source and are kept apart here. Residues, ends and D or L forms follow the SMILES beside them.
# Target: T1, c-Cbl (RING) protein (Homo sapiens, UniProt P22681)
# T1 construct: c-Cbl (RING) protein including the linker and RING domain (codon 358–457) was tagged with glutathione S-transferase (GST); GST; made in house
# T1 sequence (P22681 358-457): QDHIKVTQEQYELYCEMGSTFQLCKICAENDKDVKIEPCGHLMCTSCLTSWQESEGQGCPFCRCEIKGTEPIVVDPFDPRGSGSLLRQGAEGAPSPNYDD
# Test: Competitive FP assay/screen: displacement of probe 1 from c-Cbl (RING) protein
# Assay type: binding
# Details: for Outcome in detergent-present screen: detergent-present screen (0.01% Triton X-100); for Hit verification outcome: hits from detergent-free screen, more extensive competitive binding assays
# Method: Assays were carried out in detergent-free buffer system (PBS, pH = 7.4) or detergent-present buffer system (0.01% Triton X-100 in PBS, pH = 7.4). All FP measurements were made on 384-well, low-volume, black, v-bottom polystyrene microplates (Corning, Shanghai, China) using the ZS-2 plate reader. The binding affinities of fluorescein-labeled peptides/regulators binding to c-Cbl (RING) protein were verified by titrating an increasing concentration of protein into a constant concentration of labeled peptides. […] The total fluorescence (TF) values were also measured. The change in polarization was graphed as a function of the log of the protein concentration, and the dissociation constant (Kd) and the change in mP (ΔmP) were obtained from the resulting sigmoidal curve. The concentrations of fluorescein-labeled peptide and proteins were optimized.
# Unlabeled short peptide was titrated against the FITC-labeled peptide (100 nmol/L) and protein (3 µmol/L) mixture. Plates were incubated at room temperature for up to 3 hours or 30 min at different temperatures.
# Master mixtures containing fluorescein-labeled probe and Cbl (RING) protein Cbl (RING) protein, 3 µmol/L and probe 1 at 100 nmol/L) in a reaction volume of 19 µl were prepared and loaded to plates. The library compounds (10 µmol/L – 0.078 µmol/L, half dilutions) were prepared separately and transferred into the assay plates. The first and last columns of each plate were used as positive and negative control wells. Wells containing the drug only were used as controls to detect auto-fluorescence of the compounds in the total fluorescence assay. After subtraction of the background signal, data was processed and the IC50 values were determined by non-linear least square fitting (four parameters) using SigmaPlot 11.0.
# Hits were validated using the primary screening assay conditions in triplicate.
# [1] = primary screen, detergent-free system, 10 to 0.078 µmol/L, 5% DMSO, read-out: IC50 Primary screen DF
# [2] = primary screen, detergent-present system (0.01% Triton X-100), 10 to 0.078 µmol/L, 5% DMSO, read-out: IC50 Primary screen DP
# [3] = validated in triplicate, detergent-free system, read-out: IC50 Validated DF
# [4] = validated in triplicate, detergent-present system (0.01% Triton X-100), NR: no dose response, read-out: IC50 Validated DP
IC50 [1] [µM],IC50 [2] [µM],IC50 [3] [µM],IC50 [4] [µM],Compound,Outcome in detergent-present screen,Hit verification outcome,other results
3.5,3.8,4.6 ± 0.8,4.5 ± 1.1,C[C@]1(O)C[C@@H](O)[C@@H]2C=CO[C@@H](O[C@@H]3O[C@H](CO)[C@@H](O)[C@H](O)[C@H]3O)[C@@H]21 [Leonuride],–,–,"IC50 (primary screen, detergent-free system, 10 to 0.078 µmol/L, 5% DMSO, listed as leonuride, read-out: IC50 Primary screen DF): < 5 µM"
4.8,4,4.2 ± 0.5,4 ± 0.8,CO[C@]1(CC[C@@H](C)CO[C@@H]2O[C@H](CO)[C@@H](O)[C@H](O)[C@H]2O)O[C@H]2C[C@H]3[C@@H]4CC=C5C[C@@H](O[C@@H]6O[C@H](CO)[C@@H](O[C@@H]7O[C@@H](C)[C@H](O)[C@@H](O)[C@H]7O)[C@H](O)[C@H]6O[C@@H]6O[C@@H](C)[C@H](O)[C@@H](O)[C@H]6O)CC[C@]5(C)[C@H]4CC[C@]3(C)[C@H]2[C@@H]1C [Methylprotodioscin],–,–,–
–,–,–,–,"CC(=O)N1CCC[C@H]1C(=O)N[C@@H](Cc1ccccc1)C(=O)N[C@@H](CCCCN)C(=O)N1CCC[C@H]1C(=O)N1CCC[C@H]1C(N)=O [Peptide 1, Ac-PFKPP-NH2] (Ac-PFKPP-NH2)",–,–,"IC50 (detergent-free system, c-Cbl (RING) protein 3 µmol/L + 100 nmol/L probe 1, read-out: IC50, unlabeled peptide competing with probe 1): 1.05 ± 0.09 µM; IC50 (detergent-present system (0.01% Triton X-100), c-Cbl (RING) protein 3 µmol/L + 100 nmol/L probe 1, read-out: IC50, unlabeled peptide competing with probe 1): 1.06 ± 0.09 µM"
–,–,–,–,"CC(=O)N1CCC[C@H]1C(=O)N[C@@H](C)C(=O)N[C@@H](CCCCN)C(=O)N1CCC[C@H]1C(=O)N1CCC[C@H]1C(N)=O [Peptide 2, Ac-PAKPP-NH2] (Ac-PAKPP-NH2)",–,–,"Effect of unlabeled peptide on FP values (detergent-free system, c-Cbl (RING) protein 3 µmol/L + 100 nmol/L probe 1): does not alter the FP values"
–,–,–,–,O=c1c(O)c(-c2ccc(O)c(O)c2)oc2cc(O)cc(O)c12 [Quercetin],negative,false positive hits,–
5,> 10,4.7 ± 0.4,> 10,Tehmaglutin,negative,false positive hits,"IC50 (primary screen, detergent-free system, 10 to 0.078 µmol/L, 5% DMSO, listed as tehmaglutin, read-out: IC50 Primary screen DF): < 5 µM"

# — paper PMC3814989, “Development of a Fluorescence Polarization Based High-Throughput Assay to Identify Casitas B-Lineage Lymphoma RING Domain Regulators” (PLoS ONE, 2013)
